# Assay results reported in patent US4515727A, “Allene containing arachidonic acid derivatives” (SYNTEX (U.S.A.) Inc., priority 1982, dated 1985).
# How the values were obtained:
# [1] = biological target: T1, Lipoxygenase (Homo sapiens, UniProt P09917); test: Inhibition of lipoxygenase activity by human polymorphonuclear leukocytes (PMNs); assay type: cell-based; conditions: test compound 1×10^-4 m, 37° C., 5 minutes, arachidonic acid 1-C14 1×10^-4 M; for Percent Inhibition Lipoxygenese Act. 5-HETE: product 5-hydroxy-7,9,11,14-eicosatetraenoic acid; for Percent Inhibition Lipoxygenese Act. LTB4: product Leukotriene B4
# T1 construct: The PMNs were prepared from 200-300 ml of heparinized blood of healthy donors; endogenous in cells; host or cells: human polymorphonuclear leukocytes from heparinized blood of healthy donors (intact cells)
# T1 sequence (P09917 1-674): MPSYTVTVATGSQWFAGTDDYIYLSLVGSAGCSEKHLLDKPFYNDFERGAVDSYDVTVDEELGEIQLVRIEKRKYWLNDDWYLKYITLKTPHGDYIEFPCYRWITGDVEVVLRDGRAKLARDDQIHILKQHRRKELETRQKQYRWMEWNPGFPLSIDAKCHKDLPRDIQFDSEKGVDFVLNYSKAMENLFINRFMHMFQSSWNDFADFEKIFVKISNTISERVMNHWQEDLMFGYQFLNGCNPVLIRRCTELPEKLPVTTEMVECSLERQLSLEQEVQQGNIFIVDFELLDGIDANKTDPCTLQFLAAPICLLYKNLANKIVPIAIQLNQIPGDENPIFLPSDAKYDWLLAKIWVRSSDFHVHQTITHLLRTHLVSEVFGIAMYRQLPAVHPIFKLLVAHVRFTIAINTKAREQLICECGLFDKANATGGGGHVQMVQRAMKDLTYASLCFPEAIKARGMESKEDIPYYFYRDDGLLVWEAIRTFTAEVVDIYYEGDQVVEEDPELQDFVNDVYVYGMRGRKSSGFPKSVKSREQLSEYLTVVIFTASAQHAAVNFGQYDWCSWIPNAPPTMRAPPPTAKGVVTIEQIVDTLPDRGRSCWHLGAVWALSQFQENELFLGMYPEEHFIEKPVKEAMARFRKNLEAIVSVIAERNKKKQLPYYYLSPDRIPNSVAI
# Method: (§1) Assay for Inhibition of Lipoxygenase Activity By Human Polymorphonuclear Leukocytes (PMNs)
# (§2) 1. Preparation of the cells:
# (§3) The PMNs were prepared from 200-300 ml of heparinized blood of healthy donors not receiving any medication for at least 7 days using Ficoll-Hypaque gradients. In general, PMNs were greater than 98% pure and their viability was assessed by dye-exclusion to be better than 95%. The cells were suspended in phosphate buffered saline containing 1.0 mM CaCl2 (PH 7.4) and 0.1 ovalbumin, and used within 30 minutes.
# Incubations were carried out at 37° C. for 5 minutes in a total volume of 0.2 ml. Arachidonic acid 1-C^14 (1×10^-4 M unless otherwise indicated, and approximately 300,000 cpm) was added to a suspension of cells (ca 5×10^6) to initiate the reaction. Prior to the addition of above substrate, the test substances were added to the cells at appropriate concentrations and pre-incubated at 37° C. for 5 minutes. In general, stock solutions of test substances were prepared in ethanol (or other appropriate solvents) and diluted with either incubation buffer or water. […] Boiled enzyme blanks and controls containing no test compound were always included. The incubations were terminated by the addition of 0.6 ml of methanol, vortexed and kept on ice for 30 minutes. An internal standard (5-hydroxy-7,9,11,14-eicosatetraenoic acid methyl ester) and 1.6 ml of deionized water was added, vortexed, centrifuged, supernatants decanted and kept in the freezer overnight. Extraction and purification of the arachidonic acid and lipoxygenase products were carried out using "Baker" disposable C18 extraction columns (1 ml capacity). The columns were prewashed with methanol (2.0 ml) followed by deionized water (2 ml). After most of the solvent was removed, 2.0 ml of the supernatant was applied to the extraction column and the solvent was allowed to flow through. The column was then washed with 5 ml of deionized water and the eludate was discarded. The column was then eluted with 2.0 ml of methanol and the eludate was forced through by N2, collected and the solvent removed in a vacuum oven overnight. The residue was carefully dissolved in […] of the mobile phase (methanol 75:H2 O 25:acetic acid 0.01) and a 10 microliter aliquot counted to estimate the recoveries. An aliquot of an extract from a control tube was injected into a Waters μBondpack C-18 reverse phase column and the retention times of cycloxygenase and lipoxygenase products determined both by OD measurement at 244 nM and by collecting 1 min. fractions and determining radioactivity. Based on this information, programmed collection of fractions (total of 6) using a fraction collector was made with each of the extracts injected into the column by an autoinjector (WISP) and the fractions counted for radioactivity in a Packard Liquid Scintillation Spectrometer.
# Using this procedure the following compounds were tested at a concentration of 1×10^-4 m and found to have the denoted lipoxygenase and cycloxygenase activity: […]
# [2] = biological target: T2, Cyclooxygenase (Homo sapiens, UniProt P23219); test: Inhibition of cyclooxygenase activity in the human PMN arachidonic acid incubation; assay type: cell-based; conditions: test compound 1×10^-4 m; human PMNs, 37° C., 5 minutes; arachidonic acid 1-C14 1×10^-4 M
# T2 construct: The PMNs were prepared from 200-300 ml of heparinized blood of healthy donors; endogenous in cells; host or cells: human polymorphonuclear leukocytes from heparinized blood of healthy donors (intact cells, more than 98% pure)
# T2 sequence (P23219 24-599): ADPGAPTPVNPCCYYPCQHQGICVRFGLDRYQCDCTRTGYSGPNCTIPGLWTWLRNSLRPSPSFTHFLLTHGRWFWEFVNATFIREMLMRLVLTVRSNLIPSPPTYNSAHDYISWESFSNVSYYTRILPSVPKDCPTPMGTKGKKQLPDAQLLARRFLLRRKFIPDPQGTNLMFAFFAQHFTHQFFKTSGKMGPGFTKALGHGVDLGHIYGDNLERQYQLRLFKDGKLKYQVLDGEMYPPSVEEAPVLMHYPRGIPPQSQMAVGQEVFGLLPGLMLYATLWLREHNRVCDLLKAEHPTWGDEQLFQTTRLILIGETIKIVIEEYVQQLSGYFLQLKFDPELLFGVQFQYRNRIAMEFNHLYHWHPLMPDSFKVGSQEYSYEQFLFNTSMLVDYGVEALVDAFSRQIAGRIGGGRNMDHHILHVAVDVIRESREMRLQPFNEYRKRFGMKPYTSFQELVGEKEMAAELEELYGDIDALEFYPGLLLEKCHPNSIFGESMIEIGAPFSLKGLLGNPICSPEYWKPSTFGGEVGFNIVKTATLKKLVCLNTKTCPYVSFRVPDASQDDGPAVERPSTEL
# Method: as §1, §2, §3
# Incubations were carried out at 37° C. for 5 minutes in a total volume of 0.2 ml. Arachidonic acid 1-C^14 (1×10^-4 M unless otherwise indicated, and approximately 300,000 cpm) was added to a suspension of cells (ca 5×10^6) to initiate the reaction. Prior to the addition of above substrate, the test substances were added to the cells at appropriate concentrations and pre-incubated at 37° C. for 5 minutes. In general, stock solutions of test substances were prepared in ethanol (or other appropriate solvents) and diluted with either incubation buffer or water. […] Boiled enzyme blanks and controls containing no test compound were always included. The incubations were terminated by the addition of 0.6 ml of methanol, vortexed and kept on ice for 30 minutes. […] The residue was carefully dissolved in […] of the mobile phase (methanol 75:H2 O 25:acetic acid 0.01) and a 10 microliter aliquot counted to estimate the recoveries. An aliquot of an extract from a control tube was injected into a Waters μBondpack C-18 reverse phase column and the retention times of cycloxygenase and lipoxygenase products determined both by OD measurement at 244 nM and by collecting 1 min. fractions and determining radioactivity. Based on this information, programmed collection of fractions (total of 6) using a fraction collector was made with each of the extracts injected into the column by an autoinjector (WISP) and the fractions counted for radioactivity in a Packard Liquid Scintillation Spectrometer. […]
Structure (SMILES),Percent Inhibition Lipoxygenese Act. 5-HETE [1] [%],Percent Inhibition Lipoxygenese Act. LTB4 [1] [%],"Percent Inhibition Cyclooxygenese Act. Total ""PGs"" [2] [%]"
"CCCCCCCCCCC/C=C\CC=C=CCCC(=O)O [4,5,8Z-eicosatrienoic acid]",42,47,7
"CCCCCCCCCCCSCC=C=CCCC(=O)O [8-thianonadeca-4,5-dienoic acid]",46,37,22
"CCCCC/C=C\C/C=C\C/C=C\CC=C=CCCC(=O)O [4,5,8Z,11Z,14Z-eicosatetraenoic acid]",9,20,9
